# Key:
# PCTK1 = molecular target: T1, PCTK1 (Homo sapiens, UniProt Q00536); test: KINOMEscan panel screen; assay type: binding; details: read-out: Percent Control(%)
# T1 construct: purchased DiscoveRx KINOMEscan (Ambit Biosciences)
# DLK = molecular target: T2, DLK (Homo sapiens, UniProt Q12852); parameters: method as in earlier work; details: Table S1; cited from earlier work
# T2 sequence (Q12852 1-859): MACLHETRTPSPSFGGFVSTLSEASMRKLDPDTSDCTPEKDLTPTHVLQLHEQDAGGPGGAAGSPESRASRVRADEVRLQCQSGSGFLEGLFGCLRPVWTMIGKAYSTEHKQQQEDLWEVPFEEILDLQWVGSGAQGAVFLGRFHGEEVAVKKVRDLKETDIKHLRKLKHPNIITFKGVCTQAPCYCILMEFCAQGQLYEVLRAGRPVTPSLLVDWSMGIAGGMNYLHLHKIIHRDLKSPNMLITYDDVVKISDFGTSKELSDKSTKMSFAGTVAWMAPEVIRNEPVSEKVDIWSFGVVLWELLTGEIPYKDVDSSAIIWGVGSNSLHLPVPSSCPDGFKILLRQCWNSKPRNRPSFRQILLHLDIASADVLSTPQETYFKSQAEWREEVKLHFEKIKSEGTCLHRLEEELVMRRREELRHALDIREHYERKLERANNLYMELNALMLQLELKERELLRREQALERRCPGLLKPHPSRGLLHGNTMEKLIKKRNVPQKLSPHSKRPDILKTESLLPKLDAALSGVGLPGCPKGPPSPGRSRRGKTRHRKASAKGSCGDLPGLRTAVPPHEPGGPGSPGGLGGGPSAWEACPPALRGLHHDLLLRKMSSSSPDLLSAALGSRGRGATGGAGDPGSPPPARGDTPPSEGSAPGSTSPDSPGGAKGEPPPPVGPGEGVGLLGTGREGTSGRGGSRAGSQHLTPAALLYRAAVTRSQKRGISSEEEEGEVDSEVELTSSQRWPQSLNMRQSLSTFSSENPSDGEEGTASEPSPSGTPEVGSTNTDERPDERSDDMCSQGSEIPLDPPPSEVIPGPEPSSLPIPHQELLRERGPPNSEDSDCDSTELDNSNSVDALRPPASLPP
# T1 sequence (Q00536 whole entry): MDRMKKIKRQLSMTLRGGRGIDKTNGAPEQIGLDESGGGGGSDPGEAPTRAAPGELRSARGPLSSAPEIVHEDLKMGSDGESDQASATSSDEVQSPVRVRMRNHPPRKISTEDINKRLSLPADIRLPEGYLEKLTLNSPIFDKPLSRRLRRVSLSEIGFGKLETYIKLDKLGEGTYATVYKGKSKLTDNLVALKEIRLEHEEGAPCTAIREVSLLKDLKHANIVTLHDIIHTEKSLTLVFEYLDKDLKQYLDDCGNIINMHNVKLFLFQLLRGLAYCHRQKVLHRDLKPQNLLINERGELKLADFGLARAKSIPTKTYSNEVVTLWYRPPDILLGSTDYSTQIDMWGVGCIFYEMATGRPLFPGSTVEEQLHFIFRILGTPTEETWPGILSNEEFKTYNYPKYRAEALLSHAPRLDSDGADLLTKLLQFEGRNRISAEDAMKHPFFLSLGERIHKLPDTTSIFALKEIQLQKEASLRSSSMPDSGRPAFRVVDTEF
compound,measurement,setting,value
"CC(C)(C)c1cc(NC(=O)Nc2ccc(Oc3ncnc4[nH]ncc34)c(F)c2)no1 [SKLB-677, 1-(4-(1H-pyrazolo[3,4-d]pyrimidin-4-yloxy)-3-fluorophenyl)-3-(5-tert-butylisoxazol-3-yl)urea]",remaining binding at 10 µM,PCTK1,0.2%
"O=C(Nc1ccc(Oc2ncnc3[nH]ncc23)cc1)Nc1ccc(Cl)c(C(F)(F)F)c1 [Compound 1, 1-(4-(1H-pyrazolo[3,4-d]pyrimidin-4-yloxy)phenyl)-3-(4-chloro-3-(trifluoromethyl)phenyl)urea]",IC50,DLK,> 10 µM
